The text below walks through data of ChEMBL document CHEMBL1201862, “PubChem BioAssay data set” (2004).

Molecules are shown by their SMILES.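 Grown in 96-well plates, cells were treated for 48 hours with each compound at five concentrations. Insufficient inhibition: endpoint recorded as highest concentration tested. GI50 = concentration required for 50% inhibition of growth.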 Activity calls are given as the source filed them. No stated cut-off is given here; in the data, active = GI50 up to about 1.1 µM and inactive = higher.

Some test systems named below: A498; ACHN; CCRF-CEM; HCC 2998; HOP-92; KM12; LOX IMVI; MCF7; MDA-MB-435; MOLT-4; Malme-3M; NCI-H23; NCI-H522; OVCAR-4; OVCAR-5; SK-MEL-28; SK-MEL-2; SR; TK-10; U-251.
What all share (experiment): NCI tumour cell line growth inhibition, 48 h

`CCOC(=O)/C(C#N)=C1\c2c([nH]c(=S)[nH]c2=O)Oc2ccc3ccccc3c21`: the GI50 in the test with A498 is 36.6 µM (inactive); in the test with ACHN, 28.8 µM (inactive); in the test with CCRF-CEM, 1.55 µM (inactive); in the test with HCC 2998 it was 59.4 µM (inactive); in the test with HOP-92 it was 43.5 µM (inactive); in the test on KM12, > 100 µM (inactive). Also, the GI50 was > 100 µM (inactive) in the test with LOX IMVI; 30.1 µM (inactive) in the test on MCF7; 43.2 µM (inactive) in the test with MDA-MB-435; 11.2 µM (inactive) in the test with MOLT-4; 68.7 µM (inactive) with Malme-3M; 88.1 µM (inactive) with NCI-H23. Also, the GI50 in the test with NCI-H522 was 19 µM (inactive); in the test on OVCAR-4 it was > 100 µM (inactive); in the test on OVCAR-5, > 100 µM (inactive); in the test with SK-MEL-28, 1.46 µM (inactive); with SK-MEL-2, 13 µM (inactive); in the test on SR it was 49.1 µM (inactive). Moreover, the GI50 with TK-10 was 39.9 µM (inactive); with U-251, 23.7 µM (inactive).

For the compound `CC(=O)OCC1OC(n2c(=O)[nH]c(=O)c3sccc32)C(Br)C1OC(C)=O` (stereo not given), the GI50 in the test with A498, in the test with ACHN, with CCRF-CEM, in the test on HCC 2998, in the test on HOP-92 and with KM12 was > 100 µM (inactive) in each case. Also, the GI50 with LOX IMVI, in the test on MCF7, with MDA-MB-435, in the test on MOLT-4, with Malme-3M and in the test on NCI-H23 was > 100 µM (inactive) each time. In addition, the GI50 with NCI-H522, in the test with OVCAR-4, in the test on OVCAR-5, in the test with SK-MEL-28, in the test on SK-MEL-2 and in the test on SR was > 100 µM (inactive) throughout. The GI50 with TK-10 and in the test on U-251 was > 100 µM (inactive) each time.

`Cn1cc2c3ccccc3nc-2c2ccccc21` [ISOCRYPTOLEPINE]: the GI50 in the test on A498 was 1.74 µM (inactive); in the test on ACHN it was 1.71 µM (inactive); in the test with CCRF-CEM it was 1.45 µM (inactive); in the test with HCC 2998, 1.6 µM (inactive); in the test on HOP-92, 1.91 µM (inactive); in the test with KM12 it was 2.08 µM (inactive). For the same compound, the GI50 in the test with LOX IMVI is 1.77 µM (inactive); in the test with MCF7, 2.67 µM (inactive); in the test on MDA-MB-435, 2.39 µM (inactive); in the test on MOLT-4, 0.421 µM (active); with Malme-3M, 2.28 µM (inactive); in the test with NCI-H23, 1.51 µM (inactive). Also, the GI50 was 1.41 µM (inactive) in the test on NCI-H522; 1.92 µM (inactive) in the test with OVCAR-4; 2.14 µM (inactive) with OVCAR-5; 2.38 µM (inactive) in the test with SK-MEL-28; 1.91 µM (inactive) in the test with SK-MEL-2; 0.397 µM (active) with SR. The GI50 with TK-10 was 3.93 µM (inactive); in the test on U-251, 2.42 µM (inactive).

Take `C=C1C[C@@H](O)[C@@H](Br)C(C)(C)[C@@]12C=CC(=O)CC2`: the GI50 was > 100 µM (inactive) with A498; > 100 µM (inactive) in the test with ACHN; > 100 µM (inactive) in the test with CCRF-CEM; > 78.7 µM (inactive) in the test on HCC 2998; > 100 µM (inactive) in the test on HOP-92; 1.52 µM (inactive) in the test with KM12. For the same compound, the GI50 in the test on LOX IMVI, in the test on MCF7, in the test with MDA-MB-435, with MOLT-4, in the test with Malme-3M and in the test with NCI-H23 was > 100 µM (inactive) each time. Also, the GI50 was > 100 µM (inactive) in the test with NCI-H522; > 100 µM (inactive) in the test with OVCAR-4; 3.18 µM (inactive) in the test with OVCAR-5; > 100 µM (inactive) with SK-MEL-28; > 78.5 µM (inactive) in the test on SK-MEL-2; > 100 µM (inactive) in the test with SR. The GI50 in the test on TK-10 is 12.6 µM (inactive); with U-251, > 100 µM (inactive).

Take `CC(C)=CC1CC(C)C2(CCC3(C)CC4C(C(=O)CC4(C)O)/C(C=O)=C\CC32)O1` (stereo not given): the GI50 in the test with A498 was 0.278 µM (active); with ACHN it was 0.0324 µM (active); with CCRF-CEM, 0.0179 µM (active); in the test on HCC 2998, 0.178 µM (active); with HOP-92 it was 0.0703 µM (active); with KM12 it was 0.102 µM (active). Further, the GI50 in the test on LOX IMVI was 0.0582 µM (active); in the test on MCF7 it was 0.0675 µM (active); with MDA-MB-435 it was 0.0617 µM (active); in the test with MOLT-4, < 0.0153 µM (active); in the test on Malme-3M it was 0.131 µM (active); in the test on NCI-H23 it was 0.0757 µM (active). The GI50 in the test on NCI-H522 was 0.028 µM (active); in the test with OVCAR-4, 0.0356 µM (active); in the test on OVCAR-5, 0.14 µM (active); in the test on SK-MEL-28, 0.104 µM (active); with SK-MEL-2 it was 0.144 µM (active); in the test with SR it was 0.03 µM (active). Moreover, the values for the GI50 with TK-10 and in the test with U-251 were 0.0235 µM (active) and 0.0735 µM (active), respectively.
